pIC50: −log10 of the molar value.
Legend:
T. albicans = assay: Inhibition of growth of C. albicans by plant defensins, Example 1 (microtitre A595 antifungal assay); type: cell-based; settings: Table 3; ½ strength PDB, 30° C., A595
Method: (§1) The inhibitory effects of the plant defensins on the growth of Trichophyton rubrum, T. interdigitale, Microsporum fulvum and C. albicans (all obtained from the National Mycology Reference Centre, South Australia Pathology at the Women's and Children's Hospital, Adelaide, Australia) are measured essentially as described by Broekaert et al. (1990) FEMS Microbiol Lett 69:55-59.
(§2) Spores of T. rubrum, T. interdigitale and M. fulvum are isolated from sporulating fungus growing on ½ strength Sabouraud dextrose agar. Spores were removed from the plates by the addition of ½ strength potato dextrose broth (PDB). C. albicans cells are grown in Yeast Peptone Broth (YPD) for 16 h. Spore and cell concentrations are measured using a hemocytometer.
(§3) Antifungal assays are conducted in 96 well microtitre plates essentially as herein described. Wells are loaded with 20 μL of filter sterilized (0.22 Ξ m syringe filter, Millipore) defensin (10× stock for each final concentration) or water and 80 μL of 5×10^4 spores/mL (T. rubrum, T. interdigitale, M. fulvum) or 5,000 cells/mL (C. albicans) in ½ strength PDB. The plates are incubated at 30° C. Fungal growth is assayed by measuring optical density at 595 nm (A595) using a microtitre plate reader (SpectraMax Pro M2; Molecular Devices. Growth is allowed to proceed until the optical density (OD) of the fungus in the absence of any test defensin reached an OD of 0.2. Each test is performed in duplicate.

A. flavus = assay: Inhibition of growth of A. flavus, Example 2 antifungal assay; type: cell-based; settings: ½ strength PDB, 30° C., A595
Method: (§4) The inhibitory effects of the plant defensins on the growth of Candida albicans, Aspergillus fumigatus (obtained from the National Mycology Reference Centre, South Australia Pathology at the Women's and Children's Hospital, Adelaide, Australia), C. glabrata, C. tropicalis, A. flavus, A. niger, A. fumigants, Cryptococcus neoformans and C. gattii (obtained from Dee Carter, University of Sydney, New South Wales, Australia) are measured essentially as described by Broekaert et al. (1990) FEMS Microbiol Lett 69:55-59.
as §2, with “A. flavus. A. niger” for “T. rubrum, T. interdigitale”, “A. fumigatus” for “M. fulvum”, “albicans, C. glabrata, C. tropicalis, C. neoformans and C. gattii” for “albicans”
as §3, with “μm” for “Ξ m”, “(A. flavus, A. niger, A. fumigatus),” for “(T. rubrum, T. interdigitale, M. fulvum) or”, “albicans, C. glabrata, C. tropicalis) or 1×10^6 cells/mL (C. neoformans, C. gattii)” for “albicans)”

C. glabrata = assay: Inhibition of growth of C. glabrata, Example 2 antifungal assay; type: cell-based; settings: ½ strength PDB, 30° C., A595
Method: as §4
as §2, with “A. flavus. A. niger” for “T. rubrum, T. interdigitale”, “A. fumigatus” for “M. fulvum”, “albicans, C. glabrata, C. tropicalis, C. neoformans and C. gattii” for “albicans”
as §3, with “μm” for “Ξ m”, “(A. flavus, A. niger, A. fumigatus),” for “(T. rubrum, T. interdigitale, M. fulvum) or”, “albicans, C. glabrata, C. tropicalis) or 1×10^6 cells/mL (C. neoformans, C. gattii)” for “albicans)”

C. albicans = assay: Inhibition of growth of Candida albicans, Example 2 antifungal assay; type: cell-based; settings: Table 4; ½ strength PDB, 30° C., A595
Method: as §4
as §2, with “A. flavus. A. niger” for “T. rubrum, T. interdigitale”, “A. fumigatus” for “M. fulvum”, “albicans, C. glabrata, C. tropicalis, C. neoformans and C. gattii” for “albicans”
as §3, with “μm” for “Ξ m”, “(A. flavus, A. niger, A. fumigatus),” for “(T. rubrum, T. interdigitale, M. fulvum) or”, “albicans, C. glabrata, C. tropicalis) or 1×10^6 cells/mL (C. neoformans, C. gattii)” for “albicans)”

M. fulvum = assay: Inhibition of growth of Microsporum fulvum by plant defensins (microtitre A595 antifungal assay); type: cell-based; settings: ½ strength PDB, 30° C., A595
Method: as §1, §2, §3

T. interdigitale = assay: Inhibition of growth of T. interdigitale by plant defensins (microtitre A595 antifungal assay); type: cell-based, Trichophyton interdigitale; settings: ½ strength PDB, 30° C.
Method: as §1, §2, §3

C. tropicalis = assay: Inhibition of growth of C. tropicalis, Example 2 antifungal assay; type: cell-based; settings: ½ strength PDB, 30° C., A595
Method: as §4
as §2, with “A. flavus. A. niger” for “T. rubrum, T. interdigitale”, “A. fumigatus” for “M. fulvum”, “albicans, C. glabrata, C. tropicalis, C. neoformans and C. gattii” for “albicans”
as §3, with “μm” for “Ξ m”, “(A. flavus, A. niger, A. fumigatus),” for “(T. rubrum, T. interdigitale, M. fulvum) or”, “albicans, C. glabrata, C. tropicalis) or 1×10^6 cells/mL (C. neoformans, C. gattii)” for “albicans)”

[1] = test system: clinical isolates of T. rubrum; assay: Cell survival assay for clinical isolates of T. rubrum (plating on agar after defensin treatment, FIG. 3); type: cell-based, Trichophyton rubrum
Method: FIG. 3(A) is a photographic representations of surviving colonies of T. rubrum clinical isolate 14-01 grown on agar plates after treatment with 100 μM HXL008 for 72 h.
FIG. 3(B) is a photographic representation of surviving colonies of T. rubrum clinical isolate 14-02 grown on agar plates after treatment with 100 μM HXL008 for 72 h.
FIG. 3(C) is a photographic representation of surviving colonies of T. rubrum clinical isolate 14-03 grown on agar plates after treatment with 100 μM HXL008 for 72 h.
FIG. 3(D) is a photographic representation of surviving colonies of T. rubrum clinical isolate 13-04 grown on agar plates after treatment with 100 μM HXL008 for 72 h.
After incubation for 72 h, the media from wells containing clinical isolates of T. rubrum incubated with 100 […] HXL008 was plated onto fresh Sabouraud dextrose agar. Plates were incubated at 30° C. for 5 days to allow colonies to develop before being photographed.

[2] = test system: Trichophyton rubrum, T. interdigitale, Microsporum fulvum and C. albicans; assay: Inhibition assays of Example 1, summary across the range of fungal pathogens; type: cell-based; settings: summary of Table 3, at the concentrations tested
Method: as §1, §2, §3

E. coli = type: cell-based, Escherichia coli
Method: (§5) A single E. coli or B. subtilis colony was used to inoculate 5 ml of Luria-Bertani media and grown overnight at 37° C. The following day, the optical density of the culture was measured and the bacteria diluted to an optical density at 600 nm (OD600) of 0.01 in Mueller-Hinton Broth. Diluted E. coli or B. subtilis were added to 96-well plates with defensins at concentrations of 20 μM, 10 μM, 5 μM, 2.5 μM, 1.25 μM, 0.625 μM or 0.3125 μM. Plates were read at OD595 to obtain time zero data points. Plates were incubated at 37° C. for 18 hours before reading again at OD595 to assess the amount of bacterial growth.

B. subtilis = assay: Inhibition of the growth of Bacillus subtilis (OD595, 18 hours); type: cell-based; settings: at the concentrations tested (0.3125-20 μM)
Method: as §5

C. neoformans = assay: Inhibition of growth of Cryptococcus neoformans, Example 2 antifungal assay; type: cell-based; settings: ½ strength PDB, 30° C., A595
Method: as §4
as §2, with “A. flavus. A. niger” for “T. rubrum, T. interdigitale”, “A. fumigatus” for “M. fulvum”, “albicans, C. glabrata, C. tropicalis, C. neoformans and C. gattii” for “albicans”
as §3, with “μm” for “Ξ m”, “(A. flavus, A. niger, A. fumigatus),” for “(T. rubrum, T. interdigitale, M. fulvum) or”, “albicans, C. glabrata, C. tropicalis) or 1×10^6 cells/mL (C. neoformans, C. gattii)” for “albicans)”

T. rubrum = assay: Inhibition of growth of Trichophyton rubrum by plant defensins (microtitre A595 antifungal assay); type: cell-based; settings: ½ strength PDB, 30° C.
Method: as §1, §2, §3

C. gattii = assay: Inhibition of growth of C. gattii, Example 2 antifungal assay; type: cell-based; settings: ½ strength PDB, 30° C., A595
Method: as §4
as §2, with “A. flavus. A. niger” for “T. rubrum, T. interdigitale”, “A. fumigatus” for “M. fulvum”, “albicans, C. glabrata, C. tropicalis, C. neoformans and C. gattii” for “albicans”
as §3, with “μm” for “Ξ m”, “(A. flavus, A. niger, A. fumigatus),” for “(T. rubrum, T. interdigitale, M. fulvum) or”, “albicans, C. glabrata, C. tropicalis) or 1×10^6 cells/mL (C. neoformans, C. gattii)” for “albicans)”

A. niger = assay: Inhibition of growth of A. niger, Example 2 antifungal assay; type: cell-based; settings: ½ strength PDB, 30° C., A595
Method: as §4
as §2, with “A. flavus. A. niger” for “T. rubrum, T. interdigitale”, “A. fumigatus” for “M. fulvum”, “albicans, C. glabrata, C. tropicalis, C. neoformans and C. gattii” for “albicans”
as §3, with “μm” for “Ξ m”, “(A. flavus, A. niger, A. fumigatus),” for “(T. rubrum, T. interdigitale, M. fulvum) or”, “albicans, C. glabrata, C. tropicalis) or 1×10^6 cells/mL (C. neoformans, C. gattii)” for “albicans)”

## HXL008: Class I plant defensin from Picramnia pentandra (KVCTKPSKFFKGLCGTDGACTTACRKEGLHSGYCQLKGFLNSVCVCRKHC; HXL008 Picramnia pentandra)
T. albicans
  IC50 against T. albicans: 20 µg/mL
A. flavus
  IC50 against A. flavus: 40 µg/mL
C. glabrata
  IC50 against C. glabrata: 20 µg/mL
C. albicans
  IC50 against C. albicans: 20 µg/mL
M. fulvum
  IC50 against M. fulvum: 7 µg/mL
T. interdigitale
  IC50 against T. interdigitale: 3.5 µg/mL
C. tropicalis
  IC50 against C. tropicalis: 7 µg/mL
[1]; 100 µg/mL HXL008 for 72 h, plated, 30° C. for 5 days
  Surviving colonies on agar plates after incubation with defensin: 1-3 colonies
[1]; incubated with HXL008 for 72 h
  Cell survival of T. rubrum clinical isolates: almost all the cells were dead
[2]
  Activity across the range of fungal pathogens: most effective
E. coli; Mueller-Hinton Broth, 37° C., 18 hours, up to 20 μM, read-out: IC50 against E. coli
  pIC50: < 4.70
E. coli; at the concentrations tested (0.3125-20 μM)
  Inhibition of growth of E. coli: did not inhibit the growth
B. subtilis
  Inhibition of growth of B. subtilis: did not inhibit the growth
C. neoformans
  IC50 against C. neoformans: 2.5 µg/mL
T. rubrum
  IC50 against T. rubrum: 3 µg/mL
C. gattii
  IC50 against C. gattii: 12 µg/mL
A. niger
  IC50 against A. niger: 42 µg/mL

Reference: patent US20180193412A1, “Method of In Vivo Treatment” (Hexima Limited, priority 2015, published 2018)
